In US12649750B2, “Macrocyclic compounds, compositions, and methods of using thereof” (Sionna Therapeutics Inc., priority 2022, dated 2026):
Where two headings read alike, the source gives them in different places.

Tests used:
CFTR = molecular target: T1, CFTR (Homo sapiens, UniProt P13569, DEL508-508); test: TECC24 AUC fold over DMSO @10 μM, CFTR-mediated transepithelial chloride transport in CF-HBE cells; format: cell-based; details: test agent AUC divided by DMSO vehicle AUC, primary CF-HBE cells, ΔF508 homozygous donor, 48 hours incubation
T1 construct: Primary human bronchial epithelial cells from a ΔF508 homozygous CF donor; host or cells: primary human bronchial epithelial cells (CF-HBE), ΔF508 homozygous donor
T1 sequence (P13569 with tags, fused parts or gaps DEL508-508): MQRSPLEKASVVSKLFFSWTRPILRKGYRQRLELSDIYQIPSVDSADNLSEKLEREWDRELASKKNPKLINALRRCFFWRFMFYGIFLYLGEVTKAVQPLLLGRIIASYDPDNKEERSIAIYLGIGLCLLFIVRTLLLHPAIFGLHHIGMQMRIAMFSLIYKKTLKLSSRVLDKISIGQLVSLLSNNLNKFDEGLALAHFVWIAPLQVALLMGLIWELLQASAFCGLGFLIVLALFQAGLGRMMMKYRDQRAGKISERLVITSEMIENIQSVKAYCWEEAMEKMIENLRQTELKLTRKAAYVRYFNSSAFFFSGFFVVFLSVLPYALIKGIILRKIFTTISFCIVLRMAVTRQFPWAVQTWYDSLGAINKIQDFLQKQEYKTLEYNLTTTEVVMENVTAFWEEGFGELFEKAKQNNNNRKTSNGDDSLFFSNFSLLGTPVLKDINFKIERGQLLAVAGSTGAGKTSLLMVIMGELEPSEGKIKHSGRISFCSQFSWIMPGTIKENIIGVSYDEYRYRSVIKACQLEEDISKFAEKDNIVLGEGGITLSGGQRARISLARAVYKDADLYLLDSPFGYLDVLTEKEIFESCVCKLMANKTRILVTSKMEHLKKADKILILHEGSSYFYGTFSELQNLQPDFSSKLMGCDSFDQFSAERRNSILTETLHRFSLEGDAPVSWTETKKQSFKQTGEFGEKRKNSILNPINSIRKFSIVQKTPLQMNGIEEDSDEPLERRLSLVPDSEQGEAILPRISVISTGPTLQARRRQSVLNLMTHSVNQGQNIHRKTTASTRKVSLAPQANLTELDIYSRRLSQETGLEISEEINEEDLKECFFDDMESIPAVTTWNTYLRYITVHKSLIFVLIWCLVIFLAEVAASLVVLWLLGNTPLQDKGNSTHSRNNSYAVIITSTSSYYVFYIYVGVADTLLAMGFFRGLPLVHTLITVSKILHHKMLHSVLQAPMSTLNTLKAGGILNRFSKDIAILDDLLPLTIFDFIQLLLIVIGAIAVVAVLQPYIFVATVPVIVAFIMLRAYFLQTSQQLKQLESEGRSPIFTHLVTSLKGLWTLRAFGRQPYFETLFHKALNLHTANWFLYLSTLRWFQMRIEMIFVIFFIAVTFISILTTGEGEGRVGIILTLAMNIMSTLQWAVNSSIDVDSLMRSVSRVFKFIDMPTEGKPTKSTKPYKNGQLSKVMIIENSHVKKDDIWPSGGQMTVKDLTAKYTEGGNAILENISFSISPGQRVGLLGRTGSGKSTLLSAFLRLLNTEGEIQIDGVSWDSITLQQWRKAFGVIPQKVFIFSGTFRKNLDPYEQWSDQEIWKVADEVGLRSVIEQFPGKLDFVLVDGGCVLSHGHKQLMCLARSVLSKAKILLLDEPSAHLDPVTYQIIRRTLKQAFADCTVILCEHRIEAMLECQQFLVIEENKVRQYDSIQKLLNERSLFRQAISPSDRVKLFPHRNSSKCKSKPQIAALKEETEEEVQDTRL
In short: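 ΔF508-homozygous primary bronchial epithelial cells incubated 48 h at 36.5° C with compound (10 μM) in IL-13-containing medium, then TECC24 current-clamp recording in pH 7.4 Hepes saline with benzamil 10 μM, forskolin 10 μM, then CFTR inhibitor-172 20 μM. Equivalent Cl− current AUC between forskolin and inhibitor, expressed as fold over DMSO.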

NBD1 = molecular target: T2, NBD1 (Homo sapiens, UniProt P13569); test: Aggregation analysis using differential static light scattering (DSLS), thermal stability of NBD1 (ΔTagg); format: binding; details: ΔTagg versus DMSO control, NBD1 0.2 mg/ml
T2 construct: Purified recombinant NBD1 was produced using previously described methods; made in house
T2 sequence (P13569 423-646 limits assumed): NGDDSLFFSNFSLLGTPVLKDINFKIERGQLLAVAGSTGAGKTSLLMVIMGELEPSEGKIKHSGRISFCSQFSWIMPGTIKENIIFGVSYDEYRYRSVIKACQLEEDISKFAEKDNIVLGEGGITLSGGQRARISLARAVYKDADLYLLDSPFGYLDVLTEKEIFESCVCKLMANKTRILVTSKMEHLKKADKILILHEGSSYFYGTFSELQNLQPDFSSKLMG
In short: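 Differential static light scattering read from 25° C. to 70° C. every 0.5° C., ramp 1° C./min, on recombinant NBD1 (0.2 mg/ml; Tris/NaCl/MgCl2 buffer with 2 mM ATP, 2 mM DTT, pH 7.6, 1% glycerol) plus compound. Reported ΔTagg subtracts averaged DMSO Tagg from inflection-point Tagg; categories A ≤5, B >5-10, C >10-25° C.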

Structure (SMILES)	TECC (AUC, 10 μM) (CFTR)	DSLS 3D (100 μM ΔT) (NBD1)	also measured
CCOC(=O)CCc1cccc(C2CCCC(C)(C)CSCCc3c(c(F)cc4[nH]ccc34)Oc3ccc(F)c(c3)-c3nn2cc3C#N)c1 (centres unmarked)	–	–	ring closure, isolated yield (from CCOC(=O)CCc1cccc(C(O)CCCC(C)(C)CSCCc2c(Oc3ccc(F)c(-c4n[nH]cc4C#N)c3)c(F)cc3[nH]ccc23)c1, other bond, 18-membered ring, cyanomethylenetributylphosphorane, 1,4-dioxane, 40.9 mM, 150.0 °C, 0.67 h): 46%
COC(=O)/C1=C\c2c(c(F)cc3[nH]ccc23)Oc2cccc(c2)-c2ccn(n2)C(c2cccc(Br)c2)CCCC(C)(C)CS1(=O)=O (centres unmarked)	–	–	ring closure, isolated yield (from COC(=O)CS(=O)(=O)CC(C)(C)CCCC(c1cccc(Br)c1)n1ccc(-c2cccc(Oc3c(F)cc4[nH]ccc4c3C=O)c2)n1, other bond, 18-membered ring, piperidine/rest truncated, toluene, 3.5 mM, 100.0 °C): 43%
COC(=O)[C@@H](C)Cc1cccc([C@@]2(C)CCCC(C)(C)CS(=O)(=O)/C=C/c3c(c(F)c(F)c4[nH]ccc34)Sc3ccc(F)c(c3)-c3nc2nn3C)c1	–	–	ring closure, isolated yield (from C=CS(=O)(=O)CC(C)(C)CCC[C@](C)(c1cccc(C[C@H](C)C(=O)OC)c1)c1nc(-c2cc(Sc3c(F)c(F)c4[nH]ccc4c3Br)ccc2F)n(C)n1, cc_pd bond, 18-membered ring, Pd(PtBu3)2/Et3N, toluene, 9.7 mM, 120.0 °C, 4.0 h): 80%
COC(=O)[C@@H](C)Cc1cccc([C@@]2(C)CCCC(C)(C)CS(=O)(=O)/C=C/c3c(c(F)cc4[nH]ccc34)Sc3ccc(F)c(c3)-c3nc2nn3C)c1	–	–	ring closure, isolated yield (from C=CS(=O)(=O)CC(C)(C)CCC[C@](C)(c1cccc(C[C@H](C)C(=O)OC)c1)c1nc(-c2cc(Sc3c(F)cc4[nH]ccc4c3Br)ccc2F)n(C)n1, cc_pd bond, 18-membered ring, Pd(PtBu3)2/Et3N, toluene, 25.9 mM, 120.0 °C, 2.5 h): 69%
COC(=O)[C@H](C)Cc1cccc(C2(C)CCCC(C)(C)CS(=O)(=O)/C=C/c3c(c(F)cc4c3ccn4S(=O)(=O)c3ccc(C)cc3)Oc3ccc(F)c(c3)-c3ccn2n3)c1 (some centres unmarked)	–	–	ring closure, isolated yield (cc_pd bond, 18-membered ring, Pd(PtBu3)2/Et3N, toluene, 0.65 mM, 100.0 °C): 11%
COC(=O)[C@H](C)Cc1cccc(C2(C)CCCC(C)(C)CS(=O)(=O)C=Cc3c(c(F)cc4[nH]ccc34)Oc3ccc(F)c(c3)-c3nc2nn3C)c1 (some centres unmarked)	–	–	ring closure, isolated yield (from C=CS(=O)(=O)CC(C)(C)CCCC(C)(c1cccc(C[C@@H](C)C(=O)OC)c1)c1nc(-c2cc(Oc3c(F)cc4[nH]ccc4c3Br)ccc2F)n(C)n1, cc_pd bond, 18-membered ring, Pd(PtBu3)2/second reagent truncated, toluene, 8.15 mM, 2.0 h): 48%
COC(=O)[C@H](C)Cc1cccc([C@@]2(C)CCCC(C)(C)CS(=O)(=O)/C=C/c3c(c(F)c(F)c4[nH]ccc34)Oc3ccc(F)c(c3)-c3nc2nn3C)c1	–	–	ring closure, isolated yield (from C=CS(=O)(=O)CC(C)(C)CCC[C@](C)(c1cccc(C[C@@H](C)C(=O)OC)c1)c1nc(-c2cc(Oc3c(F)c(F)c4[nH]ccc4c3Br)ccc2F)n(C)n1, cc_pd bond, 18-membered ring, Pd(PtBu3)2/Et3N, toluene, 10.8 mM, 120.0 °C, 3.5 h): 68%
COC(=O)[C@H](C)Cc1cccc([C@@]2(C)CCCC(C)(C)CS(=O)(=O)/C=C/c3c(c(F)c(F)c4[nH]ccc34)Sc3ccnc(c3)-c3nc2nn3C)c1	–	–	ring closure, isolated yield (cc_pd bond, 18-membered ring, Pd(PtBu3)2/Et3N, toluene, 21.3 mM, 120.0 °C): 56%
COC(=O)[C@H](C)Cc1cccc([C@@]2(C)CCCC(C)(C)CS(=O)(=O)C=Cc3c(c(F)cc4[nH]ccc34)Oc3ccnc(c3)-c3nc2nn3C)c1	–	–	ring closure, isolated yield (from C=CS(=O)(=O)CC(C)(C)CCC[C@](C)(c1cccc(C[C@@H](C)C(=O)OC)c1)c1nc(-c2cc(Oc3c(F)cc4[nH]ccc4c3Br)ccn2)n(C)n1, cc_pd bond, 18-membered ring, Pd(PtBu3)2/Et3N, toluene, 2.74 mM, 120.0 °C, 4.0 h): 64%
Cn1nc2nc1-c1cc(ccc1F)Oc1c(F)cc3c(ccn3COCc3ccccc3)c1/C=C/S(=O)(=O)CCCCOC2c1cccc(CCCO)c1 (centres unmarked)	–	–	ring closure, isolated yield (from Cn1nc(C(OCCCCS(C)(=O)=O)c2cccc(CCCO)c2)nc1-c1cc(Oc2c(F)cc3c(ccn3COCc3ccccc3)c2C=O)ccc1F, other bond, 18-membered ring, NaH, DMF, 19.4 mM): 26%
Cn1nc2nc1-c1cc(ccc1F)Oc1c(F)cc3c(ccn3S(=O)(=O)c3ccccc3)c1Cn1cc(cn1)C(C)(C)CSCCC2(C)c1cccc(Br)c1 (centres unmarked)	–	–	ring closure, isolated yield (from Cn1nc(C(C)(CCSCC(C)(C)c2cn[nH]c2)c2cccc(Br)c2)nc1-c1cc(Oc2c(F)cc3c(ccn3S(=O)(=O)c3ccccc3)c2CO)ccc1F, other bond, 19-membered ring, cyanomethylenetributylphosphorane, toluene, 14.0 mM, 110.0 °C, 4.0 h): 37%
[2H]C([2H])([2H])n1nc2nc1-c1cc(ccc1F)Oc1c(F)cc3[nH]ccc3c1C=C(C(=O)OCC)S(=O)(=O)CCCCCC2(C)c1cccc(OCC(=O)OCC)c1 (centres unmarked)	–	–	ring closure, isolated yield (from [2H]C([2H])([2H])n1nc(C(C)(CCCC(C)(C)CS(=O)(=O)CC(=O)OCC)c2cccc(OCC(=O)OCC)c2)nc1-c1cc(Oc2c(F)cc3[nH]ccc3c2C=O)ccc1F, other bond, 18-membered ring, piperidine/AcOH, toluene, 2.6 mM, 110.0 °C): 52%
Cn1nc2nc1-c1cc(ccc1F)Oc1c(F)cc3[nH]ccc3c1CCS(=O)(=O)CC(C)(C)CCC[C@]2(C)c1cccc(CC(C)(C)C(=O)O)c1 [Compound 289, 3-[3-[(6R)-22,28-difluoro-3,6,10,10-tetramethyl-12,12-dioxo-24-oxa-12λ6-thia-3,4,19,30-tetrazapentacyclo[23.3.1.12,5.015,23.016,20]triaconta-1(29),2(30),4,15,17,20,22,25,27-nonaen-6-yl]phenyl]-2,2-dimethyl-propanoic Acid]	C (a value between 20 and 80 is marked “C”)	C (a value greater than 10 °C and less than or equal to 25 °C is marked “C”)	–
Cn1nc2nc1-c1cc(ccn1)Oc1c(F)cc3[nH]ccc3c1CCS(=O)(=O)CC(C)(C)CCC[C@]2(C)c1cccc(CC2(C(=O)O)CC2)c1 [Compound 290, 1-[[3-[(6R)-22-fluoro-3,6,10,10-tetramethyl-12,12-dioxo-24-oxa-12λ6-thia-3,4,19,28,30-pentazapentacyclo[23.3.1.12,5.015,23.016,20]triaconta-1(29),2(30),4,15,17,20,22,25,27-nonaen-6-yl]phenyl]methyl]cyclopropanecarboxylic Acid]	C (a value between 20 and 80 is marked “C”)	C (a value greater than 10 °C and less than or equal to 25 °C is marked “C”)	–
Cn1nc2nc1-c1cc(ccn1)Oc1c(F)cc3[nH]ccc3c1CCS(=O)(=O)CC(C)(C)CCC[C@]2(C)c1cccc(CC(C)(C)C(=O)O)c1 [Compound 291, 3-[3-[(6R)-22-fluoro-3,6,10,10-tetramethyl-12,12-dioxo-24-oxa-12λ6-thia-3,4,19,28,30-pentazapentacyclo[23.3.1.12,5.015,23.016,20]triaconta-1(29),2(30),4,15,17,20,22,25,27-nonaen-6-yl]phenyl]-2,2-dimethyl-propanoic Acid]	C (a value between 20 and 80 is marked “C”)	C (a value greater than 10 °C and less than or equal to 25 °C is marked “C”)	–
C[C@@H](Cc1cccc([C@@]2(C)CCCC(C)(C)CS(=O)(=O)CCc3c(c(F)cc4[nH]ccc34)Sc3cccc(c3)-c3nc2co3)c1)C(=O)O [Compound 293, (2S)-3-[3-[(6R)-22-fluoro-6,10,10-trimethyl-12,12-dioxo-3-oxa-12λ6,24-dithia-19,30-diazapentacyclo[23.3.1.12,5.015,23.016,20]triaconta-1(29),2(30),4,15,17,20,22,25,27-nonaen-6-yl]phenyl]-2-methyl-propanoic Acid]	B (a value between 12-20 is marked “B”)	C (a value greater than 10 °C and less than or equal to 25 °C is marked “C”)	–
C[C@@H](Cc1cccc([C@@]2(C)CCCC(C)(C)CS(=O)(=O)CCc3c(c(F)cc4[nH]ccc34)[S+]([O-])c3cccc(c3)-c3nc2co3)c1)C(=O)O (stereo partly drawn) [Compound 294, (2S)-3-[3-[(6R)-22-fluoro-6,10,10-trimethyl-12,12,24-trioxo-3-oxa-12λ6,24λ4-dithia-19,30-diazapentacyclo[23.3.1.12,5.015,23.016,20]triaconta-1(29),2(30),4,15,17,20,22,25,27-nonaen-6-yl]phenyl]-2-methyl-propanoic Acid]	A (a TECC value less than 12 is marked “A”)	C (a value greater than 10 °C and less than or equal to 25 °C is marked “C”)	–
Cn1nc2nc1-c1cc(ccc1F)Oc1c(F)cc3[nH]ccc3c1CCS(=O)(=O)CCCCOC2c1cccc(CCCO)c1 (centres unmarked) [Compound 296, 3-[3-(22,28-Difluoro-3-methyl-12,12-dioxo-7,24-dioxa-12lambda6-thia-3,4,19,30-tetrazapentacyclo[23.3.1.^12,5.0^15,23.0^16,20]triaconta-1(29),2(30),4,15(23),16(20),17,21,25,27-nonaen-6-yl)phenyl]propan-1-ol]	A (a TECC value less than 12 is marked “A”)	A (an ΔTagg value less than or equal to 5 °C is marked “A”)	–
Cn1nc2nc1-c1cc(ccc1F)Oc1c(F)cc3[nH]ccc3c1CCS(=O)(=O)CCCCOC2c1cccc(CCC(=O)O)c1 (centres unmarked) [Compound 297, 3-[3-(22,28-Difluoro-3-methyl-12,12-dioxo-7,24-dioxa-12λ6-thia-3,4,19,30-tetrazapentacyclo[23.3.1.12,5.015,23.016,20]triaconta-1(29),2(30),4,15(23),16(20),17,21,25,27-nonaen-6-yl)phenyl]propanoic Acid]	A (a TECC value less than 12 is marked “A”)	B (a value above 5 °C and less than or equal to 10 °C is marked “B”)	–
